Measured values reported in patent publication EP0619297B1, “Fungicides for the control of take-all desease of plants” (MONSANTO COMPANY, priority 1993, dated 1994).

Test system: Gaeumannomyces graminis var. tritici (Ggt)
Experiment: In vitro assay: mycelial growth on minimal media agar plates (Percent Inhibition; IC50)
Format: cell-based
Conditions: read-out: In vitro(ppm) 0.1, Percent Inhibition
Procedure: The test compounds (0.25 mL of an appropriate stock solution in acetone) are incorporated into 25 mL minimal media agar [prepared by autoclaving a solution of 17.5 g Czapek Dox broth (Difco), 7.5 g purified agar or Bacto-agar (Difco), and 500 mL distilled/deionized water, and then adding 50 µL of 1 mg/mL thiamine hydrochloride and 50 µL of 1 mg/mL biotin in 5% ethanol] and plates are prepared.
Each plate is inoculated by placing in a triangular shape three 4-mm plugs of Gaeumannomyces graminis var. tritici (Ggt) grown on the minimal media agar described above. The plates are incubated in the dark at 19 - 20 °C for 4 to 5 days. The growth of the fungus is measured as the diameter of the mycelial growth. The result is expressed as Percent Inhibition, calculated as [1 - [(mm growth on treated plate - 4)/(mm growth on control plate - 4)]] x 100.
To determine IC5O values, an in vitro assay was run on each compound at the concentrations of 1, 0.1, 0.01, 0.001, and 0.0001 ppm. The percent inhibition was calculated for each concentration using the equation described in the in vitro assay under the section on Biological Assays. Using the two ordered pairs of (concentration, % inhibition) that bracket 50% inhibition of fungal growth, the concentration for 50% inhibition is calculated from the following equation. IC50 = [(50-I2 )C1 + (I1 -50)C2 ]/(I1 -I2 ), [formula] where C1 = 10C2.

Going from `CCN(SC)C(=O)c1c([Si](C)(C)C)sc2ccccc12` [Example 16, N-Ethyl-N-(methylthio)-2-(trimethylsilyl)benzo[b]-thiophene-3-carboxamide] to `CCNC(=O)c1c([Si](C)(C)C)sc2ccccc12` [Example 8, N-Ethyl-2-(trimethylsilyl)-benzo[b]thiophene-3-carboxamide], the inhibition at 0.1 ppm falls from 100% to 97%.

Compared with `CCN(CC)C(=O)c1c([Si](C)(C)CI)ccc2ccccc12` [Example 2, N,N-Diethyl-2-[(iodomethyl)dimethylsilyl]-1-naphthalenecarboxamide], `CCC(C)(C)Nc1ccc2ccccc2c1C(=O)NCCBr` [Example 19, N-(2-bromoethyl) 2-[(1,1-dimethylpropyl)amino]-1-naphthamide] is higher in inhibition at 0.1 ppm: 15% for the first, 68% for the second.

Compared with `CC(C)N(O)C(=O)c1c([Si](C)(C)C)sc2ccccc12` [Example 17, N-Hydroxy-N-(1-methylethyl)-2-(trimethylsilyl)benzo[b]-thiophene-3-carboxamide], `CCNC(=O)c1c([Si](C)(C)C)oc2ccccc12` [Example 12, N-Ethyl-2-(trimethylsilyl)-3-benzofurancarboxamide] is higher in inhibition at 0.1 ppm: 96% for the first, 97% for the second.

Compared with `CCNC(=O)c1c([Si](C)(C)C)ccc2occc12` [Example 42, N-ethyl 5-trimethylsilyl benzofuran-4-carboxamide], `CCNC(=O)c1c([Si](C)(C)C)cc(F)c2ccccc12` [Example 1, N-Ethyl-4-fluoro-2-(trimethylsilyl)-1-naphthalenecarboxamide] is lower in inhibition at 0.1 ppm: 90% for the first, 0% for the second.

Same assay, conditions: read-out: In vitro(ppm) 1, Percent Inhibition

First: CCN(SC)C(=O)c1c([Si](C)(C)C)sc2ccccc12 [Example 16, N-Ethyl-N-(methylthio)-2-(trimethylsilyl)benzo[b]-thiophene-3-carboxamide]
Second: CCNC(=O)c1c([Si](C)(C)C)sc2ccccc12 [Example 8, N-Ethyl-2-(trimethylsilyl)-benzo[b]thiophene-3-carboxamide]
The inhibition at 1 ppm of the first is higher: 100% for the first, 93% for the second.

Compared with `CCN(CC)C(=O)c1c([Si](C)(C)CI)ccc2ccccc12` [Example 2, N,N-Diethyl-2-[(iodomethyl)dimethylsilyl]-1-naphthalenecarboxamide], `CCC(C)(C)Nc1ccc2ccccc2c1C(=O)NCCBr` [Example 19, N-(2-bromoethyl) 2-[(1,1-dimethylpropyl)amino]-1-naphthamide] is higher in inhibition at 1 ppm: 46% for the first, 93% for the second.

Compared with `CC(C)N(O)C(=O)c1c([Si](C)(C)C)sc2ccccc12` [Example 17, N-Hydroxy-N-(1-methylethyl)-2-(trimethylsilyl)benzo[b]-thiophene-3-carboxamide], `CCNC(=O)c1c([Si](C)(C)C)oc2ccccc12` [Example 12, N-Ethyl-2-(trimethylsilyl)-3-benzofurancarboxamide] is lower in inhibition at 1 ppm: 100% for the first, 97% for the second.

Going from `CCNC(=O)c1c([Si](C)(C)C)ccc2occc12` [Example 42, N-ethyl 5-trimethylsilyl benzofuran-4-carboxamide] to `CCNC(=O)c1c([Si](C)(C)C)cc(F)c2ccccc12` [Example 1, N-Ethyl-4-fluoro-2-(trimethylsilyl)-1-naphthalenecarboxamide], the inhibition at 1 ppm falls from 98% to 79%.

Same assay, conditions: read-out: In vitro(ppm) 10, Percent Inhibition

`CCN(SC)C(=O)c1c([Si](C)(C)C)sc2ccccc12` [Example 16, N-Ethyl-N-(methylthio)-2-(trimethylsilyl)benzo[b]-thiophene-3-carboxamide] and `CCNC(=O)c1c([Si](C)(C)C)sc2ccccc12` [Example 8, N-Ethyl-2-(trimethylsilyl)-benzo[b]thiophene-3-carboxamide] are the same in inhibition at 10 ppm: 100% for the first, 100% for the second.

First: CCN(CC)C(=O)c1c([Si](C)(C)CI)ccc2ccccc12 [Example 2, N,N-Diethyl-2-[(iodomethyl)dimethylsilyl]-1-naphthalenecarboxamide]
Second: CCC(C)(C)Nc1ccc2ccccc2c1C(=O)NCCBr [Example 19, N-(2-bromoethyl) 2-[(1,1-dimethylpropyl)amino]-1-naphthamide]
The inhibition at 10 ppm of the first is higher: 100% for the first, 98% for the second.

`CC(C)N(O)C(=O)c1c([Si](C)(C)C)sc2ccccc12` [Example 17, N-Hydroxy-N-(1-methylethyl)-2-(trimethylsilyl)benzo[b]-thiophene-3-carboxamide] and `CCNC(=O)c1c([Si](C)(C)C)oc2ccccc12` [Example 12, N-Ethyl-2-(trimethylsilyl)-3-benzofurancarboxamide] are the same in inhibition at 10 ppm: 100% for the first, 100% for the second.

First: CCNC(=O)c1c([Si](C)(C)C)ccc2occc12 [Example 42, N-ethyl 5-trimethylsilyl benzofuran-4-carboxamide]
Second: CCNC(=O)c1c([Si](C)(C)C)cc(F)c2ccccc12 [Example 1, N-Ethyl-4-fluoro-2-(trimethylsilyl)-1-naphthalenecarboxamide]
The inhibition at 10 ppm of the first is higher: 100% for the first, 79% for the second.

Test system: Ggt
Experiment: In vivo assay: control of Ggt on wheat in 3-inch pots with infested soil, rated after four weeks
Set-up: species or system Gaeumannomyces graminis var. tritici
Conditions: Gaeumannomyces graminis, soil, 672 h, read-out: In vivo(ppm) 0.02mg/pot, percent disease control
Procedure: Compounds are tested for control of Ggt on 'Bergen' or 'Anza' varieties of wheat grown in 3-inch square pots containing soil infested with Ggt. The infestation is accomplished by mixing the soil with an inoculum prepared by growing Ggt on 1/4 strength potato dextrose agar (4.875 g potato dextrose agar, 5.0 g Bacto agar, 500 mL distilled, deionized water) in plates and using plugs from the plates to infest sterile oats (400 cc whole oats, 350 mL deionized water, autoclaved). After a one-month incubation period at room temperature, the oats are dried and mixed with the soil at 4% v/v. Four wheat seeds are placed on top of the soil in each pot. […] Five pots are used for each treatment level and the controls, which are untreated, inoculated and non-inoculated pots. After one hour drying time, the seeds are covered with more of the appropriate soil and a layer of vermiculite. The pots are placed in a growth chamber and watered each day. After four weeks, each pot is evaluated for evidence of disease by examination of the seminal roots of each plant under a dissecting microscope. A 0 to 5 rating scale having the following meanings is used: • 0 = no runner hyphae or lesions present • 1 = runner hyphae and a few small lesions present on <10% of root system • 2 = runner hyphae and small lesions present on 10 - 25% of root system • 3 = runner hyphae and lesions present on 25 - 50% of root system • 4 = runner hyphae and many, large, coalescing lesions on >50% of root system • 5 = root system and culm completely inundated with lesions and runner hyphae
From each set of five replicates a high or low score may be eliminated to assure the best representative scores are used to calculate a replicate mean by averaging the remaining scores. This mean score is then compared to the untreated control score and a percent disease control is calculated.

Going from `CCC(C)(C)Nc1ccc2ccccc2c1C(=O)NCCBr` [Example 19, N-(2-bromoethyl) 2-[(1,1-dimethylpropyl)amino]-1-naphthamide] to `CCNC(=O)c1c([Si](C)(C)C)ccc2occc12` [Example 42, N-ethyl 5-trimethylsilyl benzofuran-4-carboxamide], the pest or weed control at 0.02 mg/pot rises from 0% to 68%.

Same assay, conditions: Gaeumannomyces graminis, soil, 672 h, read-out: In vivo(ppm) 0.1, percent disease control

Going from `CCN(SC)C(=O)c1c([Si](C)(C)C)sc2ccccc12` [Example 16, N-Ethyl-N-(methylthio)-2-(trimethylsilyl)benzo[b]-thiophene-3-carboxamide] to `CCNC(=O)c1c([Si](C)(C)C)sc2ccccc12` [Example 8, N-Ethyl-2-(trimethylsilyl)-benzo[b]thiophene-3-carboxamide], the pest or weed control at 0.1 mg/pot falls from 87% to 43%.

Going from `CCN(CC)C(=O)c1c([Si](C)(C)CI)ccc2ccccc12` [Example 2, N,N-Diethyl-2-[(iodomethyl)dimethylsilyl]-1-naphthalenecarboxamide] to `CCC(C)(C)Nc1ccc2ccccc2c1C(=O)NCCBr` [Example 19, N-(2-bromoethyl) 2-[(1,1-dimethylpropyl)amino]-1-naphthamide], the pest or weed control at 0.1 mg/pot rises from less than 0% to 0%.

Going from `CC(C)N(O)C(=O)c1c([Si](C)(C)C)sc2ccccc12` [Example 17, N-Hydroxy-N-(1-methylethyl)-2-(trimethylsilyl)benzo[b]-thiophene-3-carboxamide] to `CCNC(=O)c1c([Si](C)(C)C)oc2ccccc12` [Example 12, N-Ethyl-2-(trimethylsilyl)-3-benzofurancarboxamide], the pest or weed control at 0.1 mg/pot rises from 42% to 85%.

First: CCNC(=O)c1c([Si](C)(C)C)ccc2occc12 [Example 42, N-ethyl 5-trimethylsilyl benzofuran-4-carboxamide]
Second: CCNC(=O)c1c([Si](C)(C)C)cc(F)c2ccccc12 [Example 1, N-Ethyl-4-fluoro-2-(trimethylsilyl)-1-naphthalenecarboxamide]
The pest or weed control at 0.1 mg/pot of the first is higher: 87% for the first, 18% for the second.

Same assay, conditions: Gaeumannomyces graminis, soil, 672 h, read-out: In vivo(ppm) 0.5, percent disease control

First: CCN(SC)C(=O)c1c([Si](C)(C)C)sc2ccccc12 [Example 16, N-Ethyl-N-(methylthio)-2-(trimethylsilyl)benzo[b]-thiophene-3-carboxamide]
Second: CCNC(=O)c1c([Si](C)(C)C)sc2ccccc12 [Example 8, N-Ethyl-2-(trimethylsilyl)-benzo[b]thiophene-3-carboxamide]
The pest or weed control at 0.5 mg/pot of the first is higher: 93% for the first, 71% for the second.

Compared with `CCN(CC)C(=O)c1c([Si](C)(C)CI)ccc2ccccc12` [Example 2, N,N-Diethyl-2-[(iodomethyl)dimethylsilyl]-1-naphthalenecarboxamide], `CCC(C)(C)Nc1ccc2ccccc2c1C(=O)NCCBr` [Example 19, N-(2-bromoethyl) 2-[(1,1-dimethylpropyl)amino]-1-naphthamide] is higher in pest or weed control at 0.5 mg/pot: less than 0% for the first, 22% for the second.

First: CC(C)N(O)C(=O)c1c([Si](C)(C)C)sc2ccccc12 [Example 17, N-Hydroxy-N-(1-methylethyl)-2-(trimethylsilyl)benzo[b]-thiophene-3-carboxamide]
Second: CCNC(=O)c1c([Si](C)(C)C)oc2ccccc12 [Example 12, N-Ethyl-2-(trimethylsilyl)-3-benzofurancarboxamide]
The pest or weed control at 0.5 mg/pot of the first is lower: 46% for the first, 97% for the second.

Compound `CCNC(=O)c1c([Si](C)(C)C)ccc2occc12` [Example 42, N-ethyl 5-trimethylsilyl benzofuran-4-carboxamide] has a pest or weed control at 0.5 mg/pot of 91%.
